Assay results taken from patent publication US20230405145A1, “IRON OXIDE NANOPARTICLE FOR SUPPRESSING DRUG-RESISTANT GENE FOR THE TREATMENT OF GLIOBLASTOMA” (University of Washington, priority 2020, published 2023).

Key:
[1] = systemic administration; cited from earlier work
GBM6 cells = assay: Alamar blue viability assay, GBM6 stem-like cells; details: GBM6 (cancer stem cell)
Description: Cell survival assays. Alamar blue assay was used to evaluate cell viability following the manufacture's protocol (Life Technologies). […] AB assay was conducted at 2 days after transfection. Cells were washed with PBS (pH 7.4) three times before adding 10% AB in complete growth medium to the wells. After incubation for 1 hr, the AB solution was transferred to a 96-well plate, and fluorescent emissions at an excitation wavelength of 550 nm and an emission wavelength of 590 nm were read on a SpectraMax M5 microplate reader (Molecular Devices).

[2] = system: GBM6 orthotopic xenograft; assay: Kaplan-Meier survival, orthotopic GBM6 xenograft; assay type: in vivo, NOD-SCID mice
Description: The mice were closely monitored during the entire treatment period until the time of euthanasia. […] Mice treated with NP-siMGMT-CTX extended their lifespan for 18.3 days while mice treated with TMZ alone extended their lifespan for 2.3 days.
Orthotopic xenograft tumor model and therapy response experiments. All xenograft therapy evaluations were conducted using a GBM6 orthotopic tumor model. The human GBM6 tumor was provided by the Mayo Clinic. The procedure for establishing intracranial tumors was described previously (B. L. Carlson, J. L. Pokorny, M. A. Schroeder, J. N. Sarkaria, Current Protocols in Pharmacology 2011, 52, 1; B. L. Carlson, P. T. Grogan, A. C. Mladek, M. A. Schroeder, G. J. Kitange, P. A. Decker, C. Giannini, W. Wu, K. A. Ballman, C. D. James, J. N. Sarkaria, International Journal of Radiation Oncology, Biology, Physics 2009, 75, 212). In brief, flank GBM6 tumor xenografts were harvested, mechanically disaggregated and stereotaxically injected into the frontal lobe of 6-week-old female NOD-SCID mice (Jackson Laboratories). […] At about 4 weeks post-tumor implantation, mice with similar tumor size as evaluated by MRI were randomized to one treatment group treated with NP-siMGMT-CTX+TMZ, and three control groups treated with either NP-siGFP-CTX+TMZ, TMZ only, or untreated. […]

SF763 cells = assay: Clonogenic assay, MGMT-proficient SF763 cells; details: SF763 (GBM cell line)
A1235 cells = assay: Clonogenic assay, MGMT-deficient A1235 cells; details: A1235 (GBM cell line)
primary brain tumors = details: cited from earlier work

Nc1nc(OCc2ccccc2)c2nc[nH]c2n1 [BG, O^6-benzylguanine]
toxicity in combination with TMZ [1]: severe myelotoxicity

Cn1nnc2c(C(N)=O)ncn2c1=O [TMZ, temozolomide]
TMZ required for effective treatment (GBM6 cells): 4 mM
median survival ([2]; NPs given with TMZ per FIG. 5A schedule, TMZ 100 mg/kg oral): 40.8 ± 2.7 days
extension of lifespan ([2]; versus untreated mice): 2.3 days
TMZ required for effective treatment (SF763 cells): 400 µM
TMZ required for effective treatment (A1235 cells): 10 µM

chlorotoxin [CTX]
primary brain tumors targeted, of those examined (primary brain tumors): 74 out of 79
